Columns and labels:
Conditions in all cases: banded MIC grade
[1] = system: Aspergillus terreus; experiment: Minimum inhibitory concentration, YAG medium; format: cell-based
Experimental: (§1) The compound was dissolved in DMSO to give a solution containing 5 mg/mL. Tubes were stored at −20° C. until required. On the day of testing thawed solutions were vortex mixed to ensure homogeneity. 30 μL of solution was removed and added to 570 μL of sterile water in a separate sterile Eppendorf. The thoroughly mixed solution was used to prepare a series of doubling dilutions in water, in a deep well plate. Thirteen replicate plates were prepared using a Minitrak by aspirating 20 μL from each well into eleven clear polystyrene 96 well plates. Spores of Aspergillus spp. […] All plates were incubated for 24 hrs at 35° C. Growth was assessed by monitoring the optical density at 485 nm for each well. […] MICs are recorded as mg/L.

[2] = system: Aspergillus niger; experiment: Minimum inhibitory concentration, YAG medium; format: cell-based
Experimental: as §1

[3] = system: Aspergillus flavus; experiment: Minimum inhibitory concentration, YAG medium; format: cell-based
Experimental: as §1

[4] = system: Aspergillus fumigatus; experiment: Minimum inhibitory concentration, YAG medium; format: cell-based
Experimental: (§2) Between 1 and 5 mgs of compound were accurately weighed out into a sterile Eppendorf tube. The compound was dissolved in DMSO to give a solution containing 5 mg/mL. Tubes were stored at −20° C. until required.
(§3) On the day of testing thawed solutions were vortex mixed to ensure homogeneity. 30 μL of solution was removed and added to 570 μL of sterile water in a separate sterile Eppendorf. The thoroughly mixed solution was used to prepare a series of doubling dilutions in water, in a deep well plate. Thirteen replicate plates were prepared using a Minitrak by aspirating 20 μL from each well into eleven clear polystyrene 96 well plates.
(§4) Spores of Aspergillus spp. (Aspergillus fumigatus [two strains], Aspergillus terreus [two strains], Aspergillus niger and Aspergillus flavus) were harvested from cultures grown on Sabarauds agar for 5 days, and resuspended in PBS/Tween 80 to approx 1×10^7 cfu/mL. Each organism suspension was diluted in YAG medium (1% glucose, 1% ammonium chloride and 0.5% yeast extract) to 0.5-2×10^4cfu/mL. 80 μL of an organism suspension was added to each well of the plate containing drug dilutions.
(§5) This typically produced MIC plates with a drug range 50-0.05 mg/L and organism inocula of 1-2×10^4 cfu/mL for Aspergillus spp. All plates were incubated for 24 hrs at 35° C. Growth was assessed by monitoring the optical density at 485 nm for each well. The MIC of a compound is the lowest drug concentration that inhibits growth of an organism by >70% compared with a drug free control. MICs are recorded as mg/L. In cases where the MIC of an organism is […] the MIC is repeated using a concentration range of 0.5-0.0005 mg/L.

[5] = system: A. fumigatus 210; experiment: Minimum inhibitory concentration, YAG medium; format: cell-based, Aspergillus fumigatus
Experimental: as §2, §3, §4, §5

[6] = system: A. terreus 49; experiment: Minimum inhibitory concentration, YAG medium; format: cell-based, Aspergillus terreus
Experimental: as §1

[7] = system: C. albicans; experiment: Minimum inhibitory concentration, RPMI medium; format: cell-based
Experimental: as §1, with “Assays were also performed in RPMI medium (Roswell Park Memorial Media 1640). To perform MIC tests in this medium, dilutions” for “Spores”, “compounds are prepared in microtitre plates as described above.” for “Aspergillus spp.”, “24-48” for “24”, “The following organisms were tested: […]” for “MICs are recorded as mg/L.”

[8] = system: C. tropicalis; experiment: Minimum inhibitory concentration, RPMI medium; format: cell-based
Experimental: as §1, with “Assays were also performed in RPMI medium (Roswell Park Memorial Media 1640). To perform MIC tests in this medium, dilutions” for “Spores”, “compounds are prepared in microtitre plates as described above.” for “Aspergillus spp.”, “24-48” for “24”, “The following organisms were tested: […]” for “MICs are recorded as mg/L.”

[9] = system: C. parapsilosis; experiment: Minimum inhibitory concentration, RPMI medium; format: cell-based
Experimental: as §1, with “Assays were also performed in RPMI medium (Roswell Park Memorial Media 1640). To perform MIC tests in this medium, dilutions” for “Spores”, “compounds are prepared in microtitre plates as described above.” for “Aspergillus spp.”, “24-48” for “24”, “The following organisms were tested: […]” for “MICs are recorded as mg/L.”

Row | SMILES | MIC grade, A. TERREUS, YAG media [1] | MIC grade, A. NIGER, YAG media [2] | MIC grade, A. FLAVUS, YAG media [3] | MIC grade, A. FUMIGATUS, YAG media [4] | MIC grade, A. FUMIGATUS 210, YAG media [5] | MIC grade, A. TERREUS 49, YAG media [6] | MIC grade, C. ALBICANS, RPMI media [7] | MIC grade, C. TROPICALIS, RPMI media [8] | MIC grade, C. PARAPSILOSIS, RPMI media [9]
1 | N#Cc1ccc(COCCC2=NN=C(N)SC2)cc1 | 4 (4: <0.2 mg/L) | 4 (4: <0.2 mg/L) | 3 (3: 0.2-1 mg/L) | 4 (4: <0.2 mg/L) | 4 (4: <0.2 mg/L) | 4 (4: <0.2 mg/L) | 2 (2: 5-20 mg/L) | 1 (1: ≥20 mg/L) | 2 (2: 5-20 mg/L)
2 | CCCC(C)OCCC1=NN=C(N)SC1 (stereo not drawn) | 3 (3: 0.2-1 mg/L) | 4 (4: <0.2 mg/L) | 2 (2: 1-5 mg/L) | 2 (2: 1-5 mg/L) | 3 (3: 0.2-1 mg/L) | 2 (2: 1-5 mg/L) | 2 (2: 5-20 mg/L) | 1 (1: ≥20 mg/L) | 3 (3: 1-5 mg/L)
3 | Cc1ccc(OCCC2=NN=C(N)SC2)cc1 | 3 (3: 0.2-1 mg/L) | 3 (3: 0.2-1 mg/L) | 3 (3: 0.2-1 mg/L) | 3 (3: 0.2-1 mg/L) | 4 (4: <0.2 mg/L) | 3 (3: 0.2-1 mg/L) | 1 (1: ≥20 mg/L) | 2 (2: 5-20 mg/L) | 4 (4: <1 mg/L)
4 | NC1=NN=C(CCOc2ccc(-c3ccccc3)cc2)CS1 | 2 (2: 1-5 mg/L) | 2 (2: 1-5 mg/L) | 2 (2: 1-5 mg/L) | 1 (1: ≥5 mg/L) | 1 (1: ≥5 mg/L) | 2 (2: 1-5 mg/L) | 1 (1: ≥20 mg/L) | 1 (1: ≥20 mg/L) | 1 (1: ≥20 mg/L)
5 | CCCOc1ccc(CCC2=NN=C(N)SC2)cc1 | 4 (4: <0.2 mg/L) | 4 (4: <0.2 mg/L) | 3 (3: 0.2-1 mg/L) | 4 (4: <0.2 mg/L) | 4 (4: <0.2 mg/L) | 4 (4: <0.2 mg/L) | 4 (4: <1 mg/L) | 3 (3: 1-5 mg/L) | 4 (4: <1 mg/L)
6 | COc1ccc(COCCC2=NN=C(N)SC2)cc1 | 3 (3: 0.2-1 mg/L) | 3 (3: 0.2-1 mg/L) | 3 (3: 0.2-1 mg/L) | 3 (3: 0.2-1 mg/L) | 3 (3: 0.2-1 mg/L) | 3 (3: 0.2-1 mg/L) | 2 (2: 5-20 mg/L) | 2 (2: 5-20 mg/L) | 3 (3: 1-5 mg/L)
7 | NC1=NN=C(CCOCc2ccc(-c3ccccc3)cc2)CS1 | 3 (3: 0.2-1 mg/L) | 3 (3: 0.2-1 mg/L) | 3 (3: 0.2-1 mg/L) | 1 (1: ≥5 mg/L) | 1 (1: ≥5 mg/L) | 3 (3: 0.2-1 mg/L) | 1 (1: ≥20 mg/L) | 2 (2: 5-20 mg/L) | 2 (2: 5-20 mg/L)
8 | Cc1ccc(COCCC2=NN=C(N)SC2)cc1 | 4 (4: <0.2 mg/L) | 4 (4: <0.2 mg/L) | 3 (3: 0.2-1 mg/L) | 4 (4: <0.2 mg/L) | 4 (4: <0.2 mg/L) | 4 (4: <0.2 mg/L) | 3 (3: 1-5 mg/L) | 2 (2: 5-20 mg/L) | 3 (3: 1-5 mg/L)
9 | NC1=NN=C(CCCCC(=O)Nc2ccccc2)CS1 | 2 (2: 1-5 mg/L) | 2 (2: 1-5 mg/L) | 3 (3: 0.2-1 mg/L) | 3 (3: 0.2-1 mg/L) | 3 (3: 0.2-1 mg/L) | 2 (2: 1-5 mg/L) | 1 (1: ≥20 mg/L) | 1 (1: ≥20 mg/L) | 2 (2: 5-20 mg/L)
10 | NC1=NN=C(CCCOc2ccccc2)CS1 | 4 (4: <0.2 mg/L) | 4 (4: <0.2 mg/L) | 4 (4: <0.2 mg/L) | 4 (4: <0.2 mg/L) | 4 (4: <0.2 mg/L) | 3 (3: 0.2-1 mg/L) | 2 (2: 5-20 mg/L) | 3 (3: 1-5 mg/L) | 4 (4: <1 mg/L)
11 | NC1=NN=C(CCCCOc2ccccc2)CS1 | 4 (4: <0.2 mg/L) | 4 (4: <0.2 mg/L) | 4 (4: <0.2 mg/L) | 3 (3: 0.2-1 mg/L) | 3 (3: 0.2-1 mg/L) | 4 (4: <0.2 mg/L) | 4 (4: <1 mg/L) | 3 (3: 1-5 mg/L) | 4 (4: <1 mg/L)
12 | NC1=NN=C(CCCCCCOc2ccccc2)CS1 | 4 (4: <0.2 mg/L) | 4 (4: <0.2 mg/L) | 4 (4: <0.2 mg/L) | 4 (4: <0.2 mg/L) | 4 (4: <0.2 mg/L) | 4 (4: <0.2 mg/L) | 3 (3: 1-5 mg/L) | 4 (4: <1 mg/L) | 4 (4: <1 mg/L)
13 | NC1=NN=C(CCCCCCc2ccccc2)CS1 | 4 (4: <0.2 mg/L) | 4 (4: <0.2 mg/L) | 4 (4: <0.2 mg/L) | 4 (4: <0.2 mg/L) | 4 (4: <0.2 mg/L) | 3 (3: 0.2-1 mg/L) | 2 (2: 5-20 mg/L) | 3 (3: 1-5 mg/L) | 4 (4: <1 mg/L)
14 | COCC1=NN=C(N)SC1 | 2 (2: 1-5 mg/L) | 2 (2: 1-5 mg/L) | 2 (2: 1-5 mg/L) | 2 (2: 1-5 mg/L) | 2 (2: 1-5 mg/L) | 2 (2: 1-5 mg/L) | 2 (2: 5-20 mg/L) | 2 (2: 5-20 mg/L) | 2 (2: 5-20 mg/L)
15 | NC1=NN=C(COc2ccccc2)CS1 | 3 (3: 0.2-1 mg/L) | 3 (3: 0.2-1 mg/L) | 4 (4: <0.2 mg/L) | 4 (4: <0.2 mg/L) | 4 (4: <0.2 mg/L) | 3 (3: 0.2-1 mg/L) | 2 (2: 5-20 mg/L) | 2 (2: 5-20 mg/L) | 4 (4: <1 mg/L)

Reference: patent US20180201592A1, “2-AMINO-1,3,4-THIADIAZINE AND 2-AMINO-1,3,4-OXADIAZINE BASED ANTIFUNGAL AGENTS” (F2G Limited, priority 2015, published 2018)
